Experimental findings from US20050245508A1, “Treatment of malignant gliomas with TGF-beta inhibitors” (SCIOS, Inc., priority 2003, published 2005) are described below.

Data set [1] has as its system HLA-mismatched PBL cocultured with LN-308 cells. Nature of the data set: Cytokine release by immune effector cells, Elispot. The format is cell-based, human. The conditions noted are these: 1 μM. As for the experimental part: FIG. 3. Modulation of allogeneic anti-glioma immune responses by Compound No. 79 involves TGF-β antagonism. A. The lytic activity against LN-308 targets of PBL (squares) or purified T cells (triangles) preincubated with irradiated LN-308 cells in the absence (open symbols) or presence (filled symbols) of Compound No. 79 (1 μM) was determined in ^51Cr release assays. B-D. PBL were cultured in the absence (left) or presence (right) of irradiated LN-308 cells for 5 days. The cultures contained Compound No. 79 (1 μM) (filled bars) or not (open bars). Subsequently these effector cells were cocultured for 24 h with fresh non-irradiated LN-308 cells in the absence of Compound No. 79. The release of IFN-γ (B), TNF-α (C) or IL-10 (D) was assessed by Elispot assay. Data are expressed as cytokine-producing cells per 5×10^5 effector cells (n=3, *p<0.05, **p<0.01, t-test, effect of Compound No. 79). […]
IL-10, TNF-α and IFN-γ release by immune effector cells was assessed by Elispot assay in a multiscreen-HA 96 well plate (Millipore, Eschborn, Germany), coated with corresponding anti-human capture antibodies (Becton Dickinson). […] Spots were counted on an Elispot reader system (AID, Straβberg, Germany). […]

The subject of the next data set is LN-308 targets. In words: Polyclonal NK cell lytic activity, 51Cr release. The format is cell-based, human. As for the experimental part:
FIG. 3. Modulation of allogeneic anti-glioma immune responses by Compound No. 79 involves TGF-β antagonism. A. The lytic activity against LN-308 targets of PBL (squares) or purified T cells (triangles) preincubated with irradiated LN-308 cells in the absence (open symbols) or presence (filled symbols) of Compound No. 79 (1 μM) was determined in ^51Cr release assays. B-D. PBL were cultured in the absence (left) or presence (right) of irradiated LN-308 cells for 5 days. The cultures contained Compound No. 79 (1 μM) (filled bars) or not (open bars). Subsequently these effector cells were cocultured for 24 h with fresh non-irradiated LN-308 cells in the absence of Compound No. 79. The release of IFN-γ (B), TNF-α (C) or IL-10 (D) was assessed by Elispot assay. Data are expressed as cytokine-producing cells per 5×10^5 effector cells (n=3, *p<0.05, **p<0.01, t-test, effect of Compound No. 79). E, F. Polyclonal NK cell cultures were exposed to TGF-β1 (5 ng/ml) (E) or diluted (1:4) glioma cell SN (F), without or with Compound No. 79 (1 μM), for 48 h and subsequently used as effectors in ^51Cr release assays using LN-308 cells as targets. Compound No. 79 alone or TGF-β antibody alone had no effect on NK cell activity in these assays (data not shown).
Human PBMC were isolated from healthy donors by density gradient centrifugation (Biocoll, Biochrom KG). Monocytes were depleted by adhesion and differential centrifugation to obtain peripheral blood lymphocytes (PBL). To obtain purified T cells, the PBMC were depleted of B cells and monocytes using LymphoKwik T™ reagent (One Lambda Inc., Canoga Park, Calif.). […]
HLA-A2-mismatched PBL or T cells (107/25 cm2 flask) were cocultured with 106 irradiated (30 Gy) glioma cells for 5 days. […] The maximum 51Cr release was determined by addition of NP40 (1%). After 4 h the supernatants were transferred to a Luma-PlateTM-96 (Packard, Dreieich, Germany) and measured. The percentage of 51Cr release was calculated as follows: 100×([experimental release−spontaneous release]/[maximum release−spontaneous release]).

In data set [2] the test system is SMA-560 glioma cells. Nature of the data set: Flow cytometric cell cycle analysis. Conditions: 0.01, 0.1 or 1 μM, 48 h, data not shown. Type of data set: cell-based, murine. The method, then: (§1) The adherent glioma cells were detached nonenzymatically using cell dissociation solution (Sigma). Cell cycle analysis was performed by using fixed and permeabilized glioma cells (70% ethanol). RNA was digested with RNase A (Life Technologies, Inc.). DNA was stained with propidium iodide (50 μg/ml).

Another data set deals with LN-308 glioma cells. Nature of the data set: Flow cytometric cell cycle analysis. Type of data set: cell-based, human. Conditions: 0.01, 0.1 or 1 μM, 48 h, data not shown. As for the experimental part:
as §1

Data set [3] deals with SMA-560 glioma cells. Nature of the data set: Cytotoxicity, LDH release and trypan blue dye exclusion. Type of data set: cell-based, murine. Conditions: up to 1 μM for 72 h. The method, then: The glioma cells and CCL64 cells were maintained in DMEM supplemented with 2 mM L-glutamine (Gibco Life Technologies, Paisley, UK), 10% FCS (Biochrom KG, Berlin, Germany) and penicillin (100 IU/ml)/streptomycin (100 μg/ml) (Gibco). Growth and viability of the glioma cells was examined by crystal violet, LDH release (Roche, Mannheim, Germany) and trypan blue dye exclusion assays. To assess clonogenicity, 500 SMA-560 cells were seeded into 6 well plates (9.4 cm^2). After formation of visible cell formations, colonies>20 cells were counted.
(In general: Release of lactate dehydrogenase indicates damage to the cell membrane.)

Molecules are shown by their SMILES.

For the compound `Fc1ccc(Cl)cc1-c1nc(Nc2ccncc2)c2nccnc2n1` [Compound No. 79], the IFN-γ release result in data set [1] (PBL primed in presence of LN-308 cells, FIG. 3B) was “restored the IFN-γ release to levels comparable to PBL pre-cultured in the absence of LN-308 cells”. Also, in data set [1] (unstimulated and glioma cell-primed cultures, FIG. 3D), the IL-10 release result is recorded as “reduced”. Further, the “TGF-β-mediated inhibition of NK cell lytic activity” value in the data set with LN-308 targets (TGF-β1 5 ng/ml, 1 μM, 48 h, FIG. 3E) is given as “relieved”. Besides, in the data set on LN-308 targets (supernatant diluted 1:4, 48 h, FIG. 3F), the “inhibition of NK cell activity by LN-308 cell supernatants” value is on record as “blocked”. In addition, in the data set on LN-308 targets (without TGF-β or supernatant, data not shown), the “NK cell activity, agent alone” value was “no effect”. In addition, the cell cycle arrest result with SMA-560 glioma cells [2] and with LN-308 glioma cells was “no specific type of cell cycle arrest” each time. Also, the cytotoxic effects result with SMA-560 glioma cells [3] is given as “neiter LDH release nor trypan blue dye exclusion assays revealed cytotoxic effects”.
